Test [1] concerns p-SLP-76 (Ser376) in Jurkat cells. As to the kind of experiment: pSLP76 Cellular Assay (AlphaLISA SureFire Ultra p-SLP-76 (Ser376), anti-CD3 activated Jurkat cells). The following applies: Homo sapiens; Jurkat cells, anti-CD3 stimulation, pSLP76; read-out: Cellular Potency. The class given is cell-based. The method, boiled down: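 Jurkat cells, serum-starved overnight in Opti-MEM then in HBSS, preincubated 1 h at 37 °C with 22-point 2-fold compound dilutions, then stimulated with anti-CD3 (0.025 mg/ml added solution) for 45 min. Lysate p-SLP-76 (Ser376) measured by AlphaLISA at 570 nm; IC50 from 4-parameter logistic fit.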

Another test concerns the target HPK1 (Homo sapiens, UniProt Q92918). The experiment in a line: HPK1 Biochemical Assay (ADP-Glo luminescence; low ATP 10 μM or high ATP 200 μM). (ADP-Glo first removes unused ATP, then detects ADP through luciferase.)
[2] abbreviates: 2 nM HPK1, 10 μM ATP, read-out: Biochemical Potency (low ATP).

Read-outs that look alike come from different tables or passages of the source.

Sequence of HPK1 (Q92918 whole entry, species assumed): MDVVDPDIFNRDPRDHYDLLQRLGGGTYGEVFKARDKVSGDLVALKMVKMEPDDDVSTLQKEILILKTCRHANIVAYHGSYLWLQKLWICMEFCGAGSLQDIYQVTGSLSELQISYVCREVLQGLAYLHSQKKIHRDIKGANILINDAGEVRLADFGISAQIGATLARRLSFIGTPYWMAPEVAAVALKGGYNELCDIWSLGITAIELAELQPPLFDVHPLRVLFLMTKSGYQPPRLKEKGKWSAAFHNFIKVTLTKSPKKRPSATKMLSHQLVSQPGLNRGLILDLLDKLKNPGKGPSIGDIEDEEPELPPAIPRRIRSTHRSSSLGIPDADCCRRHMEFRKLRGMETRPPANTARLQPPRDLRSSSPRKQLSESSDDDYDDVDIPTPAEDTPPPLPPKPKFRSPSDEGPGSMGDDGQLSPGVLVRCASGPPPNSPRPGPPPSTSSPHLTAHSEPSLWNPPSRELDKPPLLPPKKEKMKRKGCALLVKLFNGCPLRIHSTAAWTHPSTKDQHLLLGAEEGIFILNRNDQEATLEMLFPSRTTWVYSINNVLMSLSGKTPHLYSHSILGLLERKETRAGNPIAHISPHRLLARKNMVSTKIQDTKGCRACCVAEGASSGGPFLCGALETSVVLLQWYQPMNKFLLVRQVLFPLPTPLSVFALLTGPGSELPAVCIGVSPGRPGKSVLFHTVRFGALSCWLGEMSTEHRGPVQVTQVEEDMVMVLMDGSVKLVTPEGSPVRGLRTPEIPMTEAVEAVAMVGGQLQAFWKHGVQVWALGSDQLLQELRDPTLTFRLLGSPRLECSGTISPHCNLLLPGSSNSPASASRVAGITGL

On to `Cc1cccnc1-c1nc2cc(Nc3cccc(N4CC5CCC4CN5C)n3)ncc2s1` (stereo not shown) [Example 97, 6-{5-Methyl-2,5-diazabicyclo[2.2.2]octan-2-yl}-N-[2-(3-methylpyridin-2-yl)-[1,3]thiazolo[5,4-c]pyridin-6-yl]pyridin-2-amine], for which the IC50 in test [1] is 1 to 5 µM; at HPK1 (setting [2]), below 0.1 µM.
With `Cc1cccnc1-c1nc2cc(Nc3cccc(N4C[C@@H](C)N(C)[C@@H](C)C4)n3)ncc2s1` [Example 100, N-[2-(3-Methylpyridin-2-yl)-[1,3]thiazolo[5,4-c]pyridin-6-yl]-6-[(3R,5S)-3,4,5-trimethylpiperazin-1-yl]pyridin-2-amine], the IC50 is above 5 µM in test [1] and below 0.1 µM on HPK1 (setting [2]).
The matching figures for `Cc1cccnc1-c1nc2cc(Nc3ccc(C)c(N4C[C@@H]5C[C@H]4CN5C)n3)ncc2s1` [Example 101, 5-Methyl-6-[(1S,4S)-5-methyl-2,5-diazabicyclo[2.2.1]heptan-2-yl]-N-[2-(3-methylpyridin-2-yl)-[1,3]thiazolo[5,4-c]pyridin-6-yl]pyridin-2-amine]: 0.1 to 1 µM and below 0.1 µM.
For `CN1C[C@@H]2C[C@H]1CN2c1cccc(Nc2cc3nc(-c4nccn4C)sc3cn2)n1` [Example 108, N-[2-(1-Methyl-1H-imidazol-2-yl)-[1,3]thiazolo[5,4-c]pyridin-6-yl]-6-[(1S,4S)-5-methyl-2,5-diazabicyclo[2.2.1]heptan-2-yl]pyridin-2-amine] the same measures were below 0.1 µM and below 0.1 µM.
Take `Cc1cccnc1-c1nc2cc(Nc3nc(N4C[C@@H]5C[C@H]4CN5C)ccc3F)ncc2s1` [Example 109, 3-Fluoro-6-[(1S,4S)-5-methyl-2,5-diazabicyclo[2.2.1]heptan-2-yl]-N-[2-(3-methylpyridin-2-yl)-[1,3]thiazolo[5,4-c]pyridin-6-yl]pyridin-2-amine]: the IC50 is 1 to 5 µM in test [1] and below 0.1 µM at HPK1 (setting [2]).
For `Cc1cccnc1-c1nc2cc(Nc3ccc(Cl)c(N4C[C@@H]5C[C@H]4CN5C)n3)ncc2s1` [Example 110, 5-Chloro-6-[(1S,4S)-5-methyl-2,5-diazabicyclo[2.2.1]heptan-2-yl]-N-[2-(3-methylpyridin-2-yl)-[1,3]thiazolo[5,4-c]pyridin-6-yl]pyridin-2-amine], the values for the IC50 (in test [1]; on HPK1 (setting [2])) were 0.1 to 1 µM and below 0.1 µM, respectively.
Regarding `Cc1cccnc1-c1nc2cc(Nc3ccc(C)c(N4C[C@@H]5CCN(C)[C@@H]5C4)n3)ncc2s1` [Example 112, 6-[(3aS,6aS)-1-Methyl-octahydropyrrolo[3,4-b]pyrrol-5-yl]-5-methyl-N-[2-(3-methylpyridin-2-yl)-[1,3]thiazolo[5,4-c]pyridin-6-yl]pyridin-2-amine], the IC50 was above 5 µM in test [1] and below 0.1 µM on HPK1 (setting [2]).
With `Cc1cccnc1-c1nc2cc(Nc3cccc(N4CCN5CCC[C@@H]5C4)n3)ncc2s1` [Example 114, 6-[(8aR)—Octahydropyrrolo[1,2-a]pyrazin-2-yl]-N-[2-(3-methylpyridin-2-yl)-[1,3]thiazolo[5,4-c]pyridin-6-yl]pyridin-2-amine], the results for the IC50 (in test [1]; at HPK1 (setting [2])) were above 5 µM and below 0.1 µM, respectively.
The matching figures for `Cc1cccnc1-c1nc2cc(Nc3cccc(C4CCN(C)CC4)n3)ncc2s1` [Example 115, 6-(1-Methylpiperidin-4-yl)-N-[2-(3-methylpyridin-2-yl)-[1,3]thiazolo[5,4-c]pyridin-6-yl]pyridin-2-amine]: above 5 µM and below 0.1 µM.
The matching figures for `Cc1cccnc1-c1nc2cc(Nc3cccc(N4C[C@@H]5C[C@H]4CN5C(C)C)n3)ncc2s1` [Example 116, N-[2-(3-Methylpyridin-2-yl)-[1,3]thiazolo[5,4-c]pyridin-6-yl]-6-[(1S,4S)-5-(propan-2-yl)-2,5-diazabicyclo[2.2.1]heptan-2-yl]pyridin-2-amine]: 1 to 5 µM and below 0.1 µM.
The matching figures for `Cc1cccnc1-c1nc2cc(Nc3cc(F)cc(N4C[C@@H]5C[C@H]4CN5C)n3)ncc2s1` [Example 119, 4-Fluoro-6-[(1S,4S)-5-methyl-2,5-diazabicyclo[2.2.1]heptan-2-yl]-N-[2-(3-methylpyridin-2-yl)-[1,3]thiazolo[5,4-c]pyridin-6-yl]pyridin-2-amine]: 0.1 to 1 µM and below 0.1 µM.
`CC(C)(O)c1cc(-c2nc3cc(Nc4ccnc(N5C[C@@H]6C[C@H]5CN6)n4)ncc3s2)ccn1` [Example 120, 2-{4-[6-({2-[(1S,4S)-2,5-Diazabicyclo[2.2.1]heptan-2-yl]pyrimidin-4-yl}amino)-[1,3]thiazolo[5,4-c]pyridin-2-yl]pyridin-2-yl}propan-2-ol]: the IC50 is 0.1 to 1 µM in test [1] and below 0.1 µM at HPK1 (setting [2]).
On to `CN1C[C@@H]2C[C@H]1CN2c1nccc(Nc2cc3nc(-c4cccc(N5CC[C@H](O)C5)c4)sc3cn2)n1` [Example 123, (3S)-1-{3-[6-({2-[(1S,4S)-5-Methyl-2,5-diazabicyclo[2.2.1]heptan-2-yl]pyrimidin-4-yl}amino)-[1,3]thiazolo[5,4-c]pyridin-2-yl]phenyl}pyrrolidin-3-ol], for which the IC50 was 1 to 5 µM in test [1]; below 0.1 µM on HPK1 (setting [2]); below 0.1 µM at HPK1 (5 nM HPK1, 200 μM ATP, read-out: Biochemical Potency (high ATP)).
`CN1C[C@@H]2C[C@H]1CN2c1cccc(Nc2cc3nc(-c4cccc(C(N)=O)c4)sc3cn2)n1` [Example 128, 3-[6-({6-[(1S,4S)-5-Methyl-2,5-diazabicyclo[2.2.1]heptan-2-yl]pyridin-2-yl}amino)-[1,3]thiazolo[5,4-c]pyridin-2-yl]benzamide]: the IC50 in test [1] is 0.1 to 1 µM; on HPK1 (setting [2]), below 0.1 µM.
For `Cc1ccc(-c2nc3cc(Nc4cccc(N5C[C@@H]6C[C@H]5CN6C)n4)ncc3s2)c(C)n1` [Example 129, N-[2-(2,6-Dimethylpyridin-3-yl)-[1,3]thiazolo[5,4-c]pyridin-6-yl]-6-[(1S,4S)-5-methyl-2,5-diazabicyclo[2.2.1]heptan-2-yl]pyridin-2-amine] the same measures were above 5 µM and below 0.1 µM.
The matching figures for `CN1C[C@@H]2C[C@H]1CN2c1cccc(Nc2cc3nc(-c4cccc(C(=O)N5CCCC5)c4)sc3cn2)n1` [Example 130, 6-[(1S,4S)-5-Methyl-2,5-diazabicyclo[2.2.1]heptan-2-yl]-N-{2-[3-(pyrrolidine-1-carbonyl)phenyl]-[1,3]thiazolo[5,4-c]pyridin-6-yl}pyridin-2-amine]: 0.1 to 1 µM and below 0.1 µM.
In the case of `CN1C[C@@H]2C[C@H]1CN2c1cccc(Nc2cc3nc(-c4cncc(S(C)(=O)=O)c4)sc3cn2)n1` [Example 131, N-[2-(5-Methanesulfonylpyridin-3-yl)-[1,3]thiazolo[5,4-c]pyridin-6-yl]-6-[(1S,4S)-5-methyl-2,5-diazabicyclo[2.2.1]heptan-2-yl]pyridin-2-amine], the IC50 in test [1] is 1 to 5 µM; on HPK1 (setting [2]) it was below 0.1 µM.
For the molecule `CN1C[C@@H]2C[C@H]1CN2c1cccc(Nc2cc3nc(-c4cccc(C(C)(C)O)c4)sc3cn2)n1` [Example 132, 2-{3-[6-({6-[(1S,4S)-5-Methyl-2,5-diazabicyclo[2.2.1]heptan-2-yl]pyridin-2-yl}amino)-[1,3]thiazolo[5,4-c]pyridin-2-yl]phenyl}propan-2-ol], the IC50 (in test [1]; at HPK1 (setting [2])) was below 0.1 µM each time.

For the origin of these results see patent publication US12649751B2 (Arcus Biosciences, Inc., priority 2022, dated 2026).
